Experimental data published in US10596172B2 (Celgene CAR LLC, priority 2008, dated 2020).
pIC50: −log10 of the molar value. Where two headings read alike, the source gives them in different places.

Tests used:
BTK [1] = target: BTK (Homo sapiens (Human), UniProt Q06187); assay: Washout experiment with Ramos cells; type: cell-based; conditions: 100 nM compound 1 hour, then washout
Description: Ramos cells were serum starved for one hour in RPMI media +1% glutamine at 37° C. After starvation, Ramos cells were treated with 100 nM compound diluted in serum free RPMI media for 1 hour. After compound treatment, the media was removed and cells were washed with compound-free media. Subsequently, Ramos cells were washed every 2 hours and resuspended in fresh compound-free media. Cells were collected at specified timepoints, treated with 1 ug anti-human IgM (Southern Biotech cat #2022-01) for 10 minutes on ice to induce BCR signaling and then washed in PBS. Ramos cells were then lysed in Cell Extraction Buffer (Invitrogen FNN0011) supplemented with Roche complete protease inhibitor tablets (Roche 11697498001) and phosphatase inhibitors (Roche 04 906 837 001) and 18 ug total protein lysate was loaded in each lane. Inhibition of BTK kinase activity was assayed by measuring its substrate (PLCγ2) phosphorylation by western blot with phospho-specific antibodies from Cell Signaling Technologies cat #3871. The results of this experiment with compounds I-2, I-4 and I-7 are depicted in FIGS. 1, 2 and 3.

[2] = system: B cell lymphoma cell lines; assay: B cell lymphoma proliferation assay; type: cell-based
JAK3 = JAK3 (Homo sapiens (Human), UniProt P52333); assay: Omnia assay for potency assessment against the active form of JAK3; type: biochemical; conditions: read-out: JAK3 Inhibition
BTK [3] = target: BTK (Rattus norvegicus, UniProt Q5S255); assay: BTK occupancy from in vivo samples by ELISA; conditions: po, rats dosed orally 30 mg/kg
Description: All samples were prepared with equal concentrations of Biorad lysis buffer (Hercules, Calif., USA), 0.5% bovine serum albumin in PBS with 0.05% Tween-20 to give a final concentration of 1 μM I-215. Samples were incubated in a mixing plate for 1 hr at room temperature while shaking to allow probe compound I-215 to bind to free BTK. After incubation with I-215, samples were added to a washed, streptavidin-coated ELISA plate (Pierce, Rockford, Ill., USA) and incubated for 1 hr at room temperature while shaking. The plate was then washed with PBS containing 0.05% Tween-20 using an automatic plate washer. Anti-BTK antibody was prepared at 1:1000 dilution in 0.5% BSA in PBS (0.05% Tween-20) and added to the ELISA plate. The plate was incubated for 1 hr at room temperature while shaking. The plate was washed as described above and the secondary HRP antibody was prepared at 1:5000 dilution in 0.5% BSA in PBS (0.05% Tween-20). The plate was incubated and washed as described above. TMB was added to the plate, and OD650 was monitored until reaching 1 OD unit. The reaction was then stopped with addition of H2SO4. The plate was analyzed using Gen 5 software, and a 4 Parameter Logistic curve was employed to quantitate samples. Recombinant BTK (Invitrogen, Carlsbad, Calif., USA) was used for the standard curve.
Rats were dosed orally with 30 mg/kg of compound and spleens were harvested either 2 or 24 hours after compound treatment. Rat spleens were disrupted between two microscope slides coated with frosted glass to recover single cell suspensions. Red blood cells were lysed by incubating with RBC lysis buffer (Boston BioProducts) for 2 minutes at room temperature, the cells were then resuspended in RPMI complete media and pelleted by centrifugation. Rat B cells were isolated by positive selection with B220+ antibody-magnetic bead conjugates, purified by MACS column and lysed in Bio-Rad lysis buffer at a concentration of 10 million cells/100 μl. Lysates were analyzed employing the biotinylated probe compound I-215 in an ELISA protocol as described in detail in Example 278.

[4] = DHL4 B cell lymphoma cell line, read-out: EC50 (μM) DHL4
[5] = Homo sapiens, DOHH-2, DOHH2 B cell lymphoma cell line, read-out: EC50 (μM) DOHH2
[6] = Homo sapiens, WSUDLCL2, WSU-DLCL2 B cell lymphoma cell line, read-out: EC50 (μM) WSU-DLCL2
[7] = spleen B cells harvested 2 hours after treatment, read-out: % BTK Occupancy 2 h
[8] = spleen B cells harvested 24 hours after treatment, read-out: % BTK Occupancy 24 h

Chain of BTK (Rattus norvegicus, UniProt Q5S255) (Q5S255 1-660): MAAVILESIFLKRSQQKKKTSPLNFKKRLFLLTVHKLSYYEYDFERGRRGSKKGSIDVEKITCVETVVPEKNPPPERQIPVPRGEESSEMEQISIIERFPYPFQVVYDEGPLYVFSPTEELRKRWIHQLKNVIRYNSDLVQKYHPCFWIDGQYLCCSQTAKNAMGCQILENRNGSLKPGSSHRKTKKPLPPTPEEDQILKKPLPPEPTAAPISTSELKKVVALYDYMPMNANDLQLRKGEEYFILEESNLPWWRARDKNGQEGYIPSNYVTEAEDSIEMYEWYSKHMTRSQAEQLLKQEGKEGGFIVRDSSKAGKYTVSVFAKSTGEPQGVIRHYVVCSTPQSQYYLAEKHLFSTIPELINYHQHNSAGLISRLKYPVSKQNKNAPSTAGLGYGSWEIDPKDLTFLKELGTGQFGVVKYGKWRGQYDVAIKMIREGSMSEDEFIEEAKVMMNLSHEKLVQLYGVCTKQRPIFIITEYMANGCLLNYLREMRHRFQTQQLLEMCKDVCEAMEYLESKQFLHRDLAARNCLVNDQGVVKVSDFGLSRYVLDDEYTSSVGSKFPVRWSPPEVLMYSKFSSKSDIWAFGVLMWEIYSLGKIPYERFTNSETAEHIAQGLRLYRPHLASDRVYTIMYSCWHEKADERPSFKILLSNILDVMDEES
Chain of JAK3 (P52333 whole entry): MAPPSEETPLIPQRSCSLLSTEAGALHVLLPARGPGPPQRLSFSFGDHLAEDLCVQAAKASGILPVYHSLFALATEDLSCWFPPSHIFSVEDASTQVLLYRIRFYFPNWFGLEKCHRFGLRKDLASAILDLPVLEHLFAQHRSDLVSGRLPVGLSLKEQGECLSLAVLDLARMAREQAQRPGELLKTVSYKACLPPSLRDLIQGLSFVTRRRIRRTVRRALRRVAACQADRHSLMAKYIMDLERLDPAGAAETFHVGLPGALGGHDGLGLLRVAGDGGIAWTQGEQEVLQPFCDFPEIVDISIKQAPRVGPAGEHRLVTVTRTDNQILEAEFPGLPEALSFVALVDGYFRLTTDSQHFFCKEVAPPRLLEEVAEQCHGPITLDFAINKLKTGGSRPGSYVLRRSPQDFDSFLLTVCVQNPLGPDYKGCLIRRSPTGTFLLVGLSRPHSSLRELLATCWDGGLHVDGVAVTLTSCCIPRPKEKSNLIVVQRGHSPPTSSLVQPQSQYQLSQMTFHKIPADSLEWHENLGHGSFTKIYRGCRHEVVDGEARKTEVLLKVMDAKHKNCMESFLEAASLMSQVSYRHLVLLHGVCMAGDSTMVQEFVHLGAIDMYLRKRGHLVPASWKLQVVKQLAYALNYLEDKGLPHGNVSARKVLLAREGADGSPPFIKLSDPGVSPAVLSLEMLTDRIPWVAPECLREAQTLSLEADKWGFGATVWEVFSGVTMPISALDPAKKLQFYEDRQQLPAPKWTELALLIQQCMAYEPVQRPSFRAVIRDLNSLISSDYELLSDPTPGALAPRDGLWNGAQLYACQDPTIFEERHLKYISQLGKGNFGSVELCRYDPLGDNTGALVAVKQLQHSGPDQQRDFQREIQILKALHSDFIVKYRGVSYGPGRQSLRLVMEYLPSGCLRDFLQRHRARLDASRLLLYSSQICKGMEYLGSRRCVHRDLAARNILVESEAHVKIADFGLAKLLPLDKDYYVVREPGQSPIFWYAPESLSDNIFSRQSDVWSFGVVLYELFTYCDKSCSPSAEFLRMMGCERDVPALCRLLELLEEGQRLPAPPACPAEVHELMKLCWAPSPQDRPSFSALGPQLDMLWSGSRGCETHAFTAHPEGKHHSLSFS
Chain of BTK (Homo sapiens (Human), UniProt Q06187) (Q06187 whole entry): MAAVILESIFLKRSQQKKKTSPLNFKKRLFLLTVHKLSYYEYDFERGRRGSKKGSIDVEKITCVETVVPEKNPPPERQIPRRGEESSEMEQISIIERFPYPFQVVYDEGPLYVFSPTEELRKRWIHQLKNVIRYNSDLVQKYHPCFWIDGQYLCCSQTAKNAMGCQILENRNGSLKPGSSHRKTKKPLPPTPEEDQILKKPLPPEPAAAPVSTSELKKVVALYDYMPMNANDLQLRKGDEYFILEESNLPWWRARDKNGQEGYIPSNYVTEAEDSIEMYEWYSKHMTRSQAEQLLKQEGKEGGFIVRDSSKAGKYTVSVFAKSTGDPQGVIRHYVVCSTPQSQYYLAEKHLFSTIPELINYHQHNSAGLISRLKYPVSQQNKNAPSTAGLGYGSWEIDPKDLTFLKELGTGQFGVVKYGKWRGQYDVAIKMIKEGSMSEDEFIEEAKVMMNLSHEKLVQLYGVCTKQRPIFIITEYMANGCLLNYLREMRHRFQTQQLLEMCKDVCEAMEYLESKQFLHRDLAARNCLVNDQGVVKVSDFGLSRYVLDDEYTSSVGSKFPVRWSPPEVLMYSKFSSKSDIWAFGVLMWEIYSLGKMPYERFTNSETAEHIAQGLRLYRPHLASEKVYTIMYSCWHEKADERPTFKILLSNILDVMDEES

| BTK Inhibition Type (BTK [1]) | EC50 [2, 4] | EC50 [2, 5] | EC50 [2, 6] | pIC50 (JAK3) | receptor occupancy at 30 mg/kg (BTK [3]; [7]) | receptor occupancy at 30 mg/kg (BTK [3]; [8]) | SMILES |
| --- | --- | --- | --- | --- | --- | --- | --- |
| irreversible | 0.1 to 1 µM | 0.1 to 1 µM | 0.1 to 1 µM | > 8.00 | 87% | 68% | Cc1cccc(Nc2nc(Nc3cccc(NC(=O)/C=C/CN(C)C)c3)ncc2F)c1 [Compound I-4, (E)-4-(dimethylamino)-N-(3-(5-fluoro-4-(m-tolylamino)pyrimidin-2-ylamino)phenyl)but-2-enamide] |
| irreversible | 1 to 10 µM | 1 to 10 µM | 1 to 10 µM | > 8.00 | 98% | 78% | C=CC(=O)Nc1cccc(Nc2nc(Nc3ccccc3)ncc2C)c1 [Compound I-7, N-(3-(5-methyl-2-(phenylamino)pyrimidin-4-ylamino)phenyl)acrylamide] |
